# Values joined by “and” are separate entries in the source; they are usually repeats but may differ in a detail not shown here. Identical values can stand only once. Like-named read-outs stand apart in the source and are kept apart here.
# Experiments:
# SARS-CoV-2 Delta variant [1] = test: Antiviral activity of main protease inhibitors with P-gp inhibitor CP-100356 (intracellular viral RNA); format: cell-based; details: Vero-TMPRSS2; S-217622 100 nM, nirmatrelvir 300 nM; CP-100356 1 μM
# SARS-CoV-2 Delta variant [2] = tested on: SARS-CoV-2 Delta variant; set-up: species or system Syrian hamsters; details: hamster, in vivo
# SARS-CoV-2 Delta variant [3] = test: Light sheet microscopy of whole lungs (viral antigen distribution); set-up: species or system Syrian hamsters; details: hamster, in vivo
# SARS-CoV-2 Delta variant [4] = tested on: SARS-CoV-2 Delta variant; set-up: species or system Syrian hamsters; details: hamster, in vivo; remark: listed apart in the source
# SARS-CoV-2 Delta variant [5] = format: in vivo, Syrian hamsters; details: for lung pathology / histopathological findings of viral pneumonia: hamster, in vivo; for histopathological severity of viral pneumonia / viral RNA by ISH: therapeutic treatment
# SARS-CoV-2 Delta variant [6] = format: in vivo, Syrian hamsters; details: for viral load in the lungs of contact hamsters: 6 days after co-housing
# SARS-CoV-2 Delta variant [7] = format: cell-based; details: Vero-TMPRSS2 and Calu-3 cells
# [8] = tested on: SARS-CoV-2 Omicron variant (lineage BA.1); format: cell-based; details: Vero-TMPRSS2, fig. S5
# SARS-CoV-2 Delta variant [9] = format: cell-based; details: HBE cells
# SARS-CoV-2 Delta variant [10] = format: cell-based; details: Vero-TMPRSS2 and Calu-3 cells; remark: listed apart in the source
# SARS-CoV-2 Delta variant [11] = format: cell-based; details: HBE cells, 333 nM or more; detection limit of the plaque assay
# SARS-CoV-2 Delta variant [12] = test: Time of addition assay in Calu-3 cells; format: cell-based
# [13] = prophylactic, MPV, S-217622 30 mg/kg
# [14] = prophylactic, S-217622 200 mg/kg
smiles,measurement,setting,value
CC(C)(C)[C@H](NC(=O)C(F)(F)F)C(=O)N1C[C@H]2[C@@H]([C@H]1C(=O)N[C@H](C#N)C[C@@H]1CCNC1=O)C2(C)C [Nirmatrelvir],effect of CP-100356 on antiviral activity,SARS-CoV-2 Delta variant [1],enhanced
"CC(C)C(=O)OC[C@H]1O[C@@H](n2ccc(NO)nc2=O)[C@H](O)[C@@H]1O [Molnupiravir, reference compound]",viral loads in nasal turbinates,SARS-CoV-2 Delta variant [2],limited effect
same,viral loads in the lungs,SARS-CoV-2 Delta variant [2],decreased
same,Fig. 4E: Virus titer,SARS-CoV-2 Delta variant [2]; listed as MPV,700000 and 600000 and 1200000
same,Fig. 4G: Relative Ifng RNA level,SARS-CoV-2 Delta variant [2]; listed as MPV,3.06 and 2.07 and 2.71 and 2.27
same,Fig. 4H: Relative Il6 RNA level,SARS-CoV-2 Delta variant [2]; listed as MPV,2.40 and 3.11 and 2.02 and 2.46
same,Fig. 4I: Relative Il10 RNA level,SARS-CoV-2 Delta variant [2]; listed as MPV,3.33 and 2.30 and 2.69 and 2.83
same,Fig. 4J: Relative Cxcl10 RNA level,SARS-CoV-2 Delta variant [2]; listed as MPV,14.61 and 18.50 and 12.76 and 10.96
same,Fig. 4K: Neutralizing antibody titer,SARS-CoV-2 Delta variant [2]; listed as MPV,640 and 1280
same,signal distribution of viral antigen in the lungs,SARS-CoV-2 Delta variant [3],decreased the viral distribution
same,Fig. 2H: Relative Ifng RNA level,SARS-CoV-2 Delta variant [4]; listed as MPV,3.06 and 2.07 and 2.71 and 2.27
same,Fig. 2I: Relative Il6 RNA level,SARS-CoV-2 Delta variant [4]; listed as MPV,2.40 and 3.11 and 2.02 and 2.46
same,Fig. 2J: Relative Il10 RNA level,SARS-CoV-2 Delta variant [4]; listed as MPV,3.33 and 2.30 and 2.69 and 2.83
same,Fig. 2K: Relative Cxcl10 RNA level,SARS-CoV-2 Delta variant [4]; listed as MPV,14.61 and 18.50 and 12.76 and 10.96
same,Histopathological severity score,"SARS-CoV-2 Delta variant [5]; Fig. 5B, MPV group, individual animals, listed as MPV",17 and 13
same,Histopathological severity score,"SARS-CoV-2 Delta variant [5]; Fig. 5D, MPV group, individual animals, listed as MPV",17 and 12 and 18 and 19
same,lung pathology / histopathological findings of viral pneumonia,SARS-CoV-2 Delta variant [5],prominent
same,viral RNA by in situ hybridization (ISH),SARS-CoV-2 Delta variant [5]; [13],decreased
same,histopathological severity of viral pneumonia,SARS-CoV-2 Delta variant [5],neither MPV or S-217622 could attenuate
same,viral RNA by ISH,SARS-CoV-2 Delta variant [5],Positive signals for viral RNA were also detected
same,viral load in the lungs of contact hamsters,SARS-CoV-2 Delta variant [6]; […],high viral load was detected
same,Fig. 2N: Virus titer,"SARS-CoV-2 Delta variant [6]; hamster, in vivo, listed as MPV",1250000 and 1400000 and 800000
Cn1cnc(Cn2c(=O)[nH]/c(=N\c3cc4cn(C)nc4cc3Cl)n(Cc3cc(F)c(F)cc3F)c2=O)n1 [S-217622],decrease of virus titer in the lung,SARS-CoV-2 Delta variant [2],greater than 10^3 fold
same,expression of Il6,SARS-CoV-2 Delta variant [2],decreased the expression of Il6
same,peak of body weight loss,SARS-CoV-2 Delta variant [2],7% and 5%
same,viral loads in nasal turbinates,SARS-CoV-2 Delta variant [2],limited effect
same,viral loads in the lungs,SARS-CoV-2 Delta variant [2],decreased
same,Fig. 4H: Relative Il6 RNA level,SARS-CoV-2 Delta variant [2]; 30 mg/kg,1.88 and 3.04 and 1.64 and 1.56
same,Fig. 4J: Relative Cxcl10 RNA level,SARS-CoV-2 Delta variant [2]; 30 mg/kg,5.91 and 3.38 and 3.37 and 5.99
same,Fig. 4C: Viral RNA,SARS-CoV-2 Delta variant [2]; 200 mg/kg,184497 and 149004 and 250553 and 219560
same,Fig. 4H: Relative Il6 RNA level,SARS-CoV-2 Delta variant [2]; 200 mg/kg,1.73 and 2.57 and 2.07 and 2.20
same,Fig. 4J: Relative Cxcl10 RNA level,SARS-CoV-2 Delta variant [2]; 200 mg/kg,0.55 and 0.70 and 0.74 and 0.64
same,signal distribution of viral antigen in the lungs,SARS-CoV-2 Delta variant [3],limited
same,antiviral activity compared with nirmatrelvir in hamsters,SARS-CoV-2 Delta variant [4],higher antiviral activity than nirmatrelvir
same,body weight,SARS-CoV-2 Delta variant [4],continuously gained weight
same,decrease in viral RNA load,SARS-CoV-2 Delta variant [4],more than 10^5 fold
same,expression of inflammatory cytokines,SARS-CoV-2 Delta variant [4],decreased the expression of inflammatory cytokines
same,seroconversion,SARS-CoV-2 Delta variant [4],No seroconversion was observed
same,virus titers,SARS-CoV-2 Delta variant [4],under the detection limit
same,Fig. 2D: Viral RNA,SARS-CoV-2 Delta variant [4]; 30 mg/kg,9351446 and 5264474 and 6254487 and 4687980
same,Fig. 2F: Virus titer,SARS-CoV-2 Delta variant [4]; 30 mg/kg,2500000 and 1700000 and 2600000 and 3300000
same,Fig. 2I: Relative Il6 RNA level,SARS-CoV-2 Delta variant [4]; 30 mg/kg,1.88 and 3.04 and 1.64 and 1.56
same,Fig. 2K: Relative Cxcl10 RNA level,SARS-CoV-2 Delta variant [4]; 30 mg/kg,5.91 and 3.38 and 3.37 and 5.99
same,Fig. 2L: Neutralizing antibody titer,SARS-CoV-2 Delta variant [4]; 30 mg/kg,160 and 320
same,Fig. 2F: Virus titer,SARS-CoV-2 Delta variant [4]; 200 mg/kg,n.d.(=100)
same,Fig. 2G: Virus titer,SARS-CoV-2 Delta variant [4]; 200 mg/kg,n.d.(=100)
same,Fig. 2I: Relative Il6 RNA level,SARS-CoV-2 Delta variant [4]; 200 mg/kg,1.73 and 2.57 and 2.07 and 2.20
same,Fig. 2K: Relative Cxcl10 RNA level,SARS-CoV-2 Delta variant [4]; 200 mg/kg,0.55 and 0.70 and 0.74 and 0.64
same,Fig. 2L: Neutralizing antibody titer,SARS-CoV-2 Delta variant [4]; 200 mg/kg,n.d.(=10)
same,Histopathological severity score,"SARS-CoV-2 Delta variant [5]; Fig. 5B, S-217622 dose group 30, individual animals",14 and 7 and 4 and 5
same,Histopathological severity score,"SARS-CoV-2 Delta variant [5]; Fig. 5B, S-217622 dose group 200, individual animals",3 and 5 and 4 and 7
same,Histopathological severity score,"SARS-CoV-2 Delta variant [5]; Fig. 5D, S-217622 dose group 30, individual animals",14 and 16 and 15 and 13
same,Histopathological severity score,"SARS-CoV-2 Delta variant [5]; Fig. 5D, S-217622 dose group 200, individual animals",17 and 19 and 20 and 6
same,lung pathology / histopathological findings of viral pneumonia,SARS-CoV-2 Delta variant [5],attenuated the lung pathology in a dose-dependent manner
same,viral RNA by in situ hybridization (ISH),SARS-CoV-2 Delta variant [5]; [13],decreased
same,Histopathological severity score,SARS-CoV-2 Delta variant [5]; [14],lower than the vehicle control group
same,viral RNA by in situ hybridization (ISH),SARS-CoV-2 Delta variant [5]; [14],undetectable
same,histopathological severity of viral pneumonia,SARS-CoV-2 Delta variant [5],neither MPV or S-217622 could attenuate
same,viral RNA by ISH,SARS-CoV-2 Delta variant [5],Positive signals for viral RNA were also detected
same,progeny viral RNA in the culture supernatants,SARS-CoV-2 Delta variant [7],reduced the progeny viral RNA
same,antiviral potency against Omicron variant (lineage BA.1),[8],remarkable antiviral potency
same,LDH release into basal culture medium,SARS-CoV-2 Delta variant [9],decreased
same,Infection with SARS-CoV-2 (immunofluorescence),SARS-CoV-2 Delta variant [10],inhibited
same,viral load in the lungs of contact hamsters,SARS-CoV-2 Delta variant [6]; […],no detectable viral titers
same,Fig. 2N: Virus titer,"SARS-CoV-2 Delta variant [6]; hamster, in vivo, 200 mg/kg",n.d.(=100)
same,Fig. 2N: Virus titer,"SARS-CoV-2 Delta variant [6]; second block c10-c12 (six animals: contact hamsters, 6 days after co-housing), […], 200 mg/kg",n.d.(=100)
same,progeny virus titers,SARS-CoV-2 Delta variant [11],< 100
same,Fig. 1I: Relative viral RNA to mock treated,"SARS-CoV-2 Delta variant [12]; Both stages, third column group c10-c13",0.047 and 0.045 and 0.032
same,effect on cellular entry process (0 to 2 hpi),"SARS-CoV-2 Delta variant [12]; Calu-3, 1 μM",but not the cellular entry process of infection
same,effect on post-entry process (2 to 7 hpi),"SARS-CoV-2 Delta variant [12]; Calu-3, 1 μM",has an effect on the post-entry process
same,Fig. 1I: Relative viral RNA to mock treated,"SARS-CoV-2 Delta variant [12]; Entry, first column group c0-c3",1.24 and 0.89 and 1.15
same,Fig. 1I: Relative viral RNA to mock treated,"SARS-CoV-2 Delta variant [12]; Entry, third column group c10-c13",0.033 and 0.037 and 0.04
same,Fig. 1I: Relative viral RNA to mock treated,"SARS-CoV-2 Delta variant [12]; Post-entry, first column group c0-c3",0.007 and 0.006
same,Fig. 1I: Relative viral RNA to mock treated,"SARS-CoV-2 Delta variant [12]; Post-entry, third column group c10-c13",1.03 and 0.85 and 0.71
same,effect of CP-100356 on antiviral activity,SARS-CoV-2 Delta variant [1],enhanced
